According to US20140235649A1, “USE OF PHOSPHATASE INHIBITORS OR HISTONE DEACETYLASE INHIBITORS TO TREAT DISEASES CHARACTERIZED BY LOSS OF PROTEIN FUNCTION” (LIXTE BIOTECHNOLOGY, INC., priority 2011, published 2014):
Entries after “also recorded” stand apart in the source; their conditions may differ.

Legend:
[1] = tested on: HDAC; experiment: HDAC activity assay in DAOY cells; assay type: cell-based; conditions: DAOY medulloblastoma cells, 1 h treatment
Description: Cultured DAOY cells, a medulloblastoma cell line, were plated in […] flasks. When the cells were 80% confluent, the media was replaced with media containing retinoic acid (RA) (5.0 μm), Trichostatin A (1 μm), SAHA (2.0 μm), LB-205 (5.0 μm), LB-205 ([…]), or PBS control. After 1 h, the cells were washed 3 times with a 0.9% normal saline solution. Cells were lysed in Tissue protein extraction reagent (T-PER) (Pierce Biotechnology; Rockford, Ill.), sonicated, and centrifuged. Nuclear cellular extracts were assayed from 0 to 50 μg per well using HDAC Assay Kit (Active Motif; Carlsbad, Calif.).

[2] = tested on: acetylated histone 3; experiment: Western blot for acetylated histone 3 in DAOY xenografts; assay type: in vivo, SCID mice
[3] = tested on: ΔVHL-Y112N; experiment: ΔVHL-Y112N stability / half life, Western blot, 786-O cells; assay type: cell-based, human; conditions: ΔVHL-Y112N (FIG. 10E)
Description: Microdissected tissue and cell pellets were lysed in RIPA lysis buffer (Thermo), sonicated and centrifuged. The quantity of protein was determined in the supernatant solution using a Bio-Rad Protein Assay Kit. Proteins were separated by NuPAGE 4-12% Bis-Tris gel (Invitrogen) and transferred to PVDF membranes (Invitrogen). Membranes were blocked in 5% skim dried milk and immunoblotted with primary antibody. Antibodies used for this study: Flag (1:2000, Origene), HA (1:1000, Origene), Ubiquitin (1:1000, Cell Signaling), Hsp70 (1:1000, Sigma), Hsp90 (1:1000, Cell Signaling), TCP1 (1:1000, Sigma), β-Actin (1:2000, Sigma).
VHL deficient cell line 786-O were maintained in Dulbecco's Modified Eagle Media (DMEM, Invitrogen) containing 10% FBS, 100 U/mL penicillin and 100 μg/mL streptomycin. Cells were transfected with VHL or HIF1/2 vectors by using Xtremegene 9 transfection reagent (Roche). For stable transfection, cells were incubated in growth medium supplemented with 0.5 mg/mL G-418 for 10 days followed by serial dilution. Monoclonal cells were collected and gene expression was tested through western blot.
Mutagenesis was performed using QuikChange Lightning Site-Directed Mutagenesis Kit (Agilent). Missense mutations were selected based on frequent mutations in the VHL syndrome. Mutations in the VHL gene were generated in pCMV6-Entry vectors with the full-length wild type VHL gene (Origene). […]

[4] = tested on: ΔSDHB-L65P; experiment: ΔSDHB-L65P protein half-life through CHX treatment, Western blot, HeLa cells; assay type: cell-based, human; conditions: L65P mutant
Description: Western blot analysis was performed as previously described with minor modifications (Zhuang et al, 2011). Microdissected tumor tissue and cell pellets were extracted for protein using RIPA lysis buffer supplemented with Halt proteinase inhibitor cocktail (Thermo Scientific, Rockford, Ill.). Protein was vortexed at 4° C. for 20 min and centrifuged in 12,000 g for 10 min at 4° C. Supernatant was collected and protein quantity was identified through a Bio-Rad (Hercules, Calif.) Protein Assay kit. Equal amount of proteins were separated on NuPAGE 4-12% Bis-Tris gel (Invitrogen, Carlsbad, Calif.) and transferred to PVDF membranes (Invitrogen). Membranes were blocked in 5% skim dried milk in PBST and blotted with primary antibody. Protein expression was identified through chemiluminescence kit (Thermo Scientific). The following antibodies were used: SDHA (1:1,000, Cell Signaling Technology, Beverly, Mass.), SDHB (1:1,000, Sigma-Aldrich, St. Louis Mo.), Flag (1:2,000, Origene, Rockville, Md.), Ubiquitin (1:1,000, Abcam, Cambridge, Mass.), HA (1:2,000, Origene), Hsp90 (1:1,000, Cell Signaling Technology) and β-Actin (1:1,000, Santa Cruz Biotechnology, Inc., Santa Cruz, Calif.).
HeLa cells were maintained in DMEM containing 10% FBS (Invitrogen). Cells were transfected with SDHB vectors by FuGENE 6 transfection reagent (Roche, Indianapolis, Ind.). Medium was changed 4 hours after transfection and cells were maintained 48 hours before cycloheximide (20 μg/mL, Sigma-Aldrich) treatment.
Ubiquitin-HA vector was described previously (Kamitani et al. (1997)). Human wild type SDHB gene was cloned into pCMV6-Entry vector (Origene). Hot spot missense mutations in SDHB related PHEOs/PGLs based on previous findings (Van Nederveen et al. (2006); Henderson et al. (2009); Pawlu et al. (2005)). Mutagenesis was performed based on wild type SDHB vector using a Quikchange Lightning Site-Directed Mutagenesis Kit (Agilent, Santa Clara, Calif.). For each mutant, the sequence of SDHB gene was verified through sequencing the entire coding region of the gene. Vectors were purified through PureLink HiPure Plasmid Maxiprep kit (Invitrogen) for transfection and cell free protein expression.

[5] = tested on: missense glucocerebrosidase; conditions: previously found (REF); cited from earlier work
[6] = tested on: HDACs; experiment: Western blot for acetylated histone 3 in type 1 GD fibroblasts; conditions: GD type 1 fibroblasts, 2.5 μM
Description: Cell lines were obtained from the Development and Metabolic Neurology Branch of the National Institute of Neurological Disorders and Stroke (NINDS). Type 1 GD fibroblast is homozygous for N370S mutation. Type II and III GD fibroblasts are homozygous for L444P mutation.
Cell pellets were lysed in T-PER Tissue Protein Extraction Reagent solution (T-PER) (Thermo; Waltham, Mass.), sonicated, and centrifuged. Protein was determined in the supernatant solution by using the Bio-Rad Protein Assay kit (Bio-Rad; Hercules, Calif.). […] Blocking buffer solution was used before immunoblotting with primary antibody. Expression of GBA was determined by Western blotting using monoclonal antibody at a dilution of 1:1,000. Acetylated histone 3 rabbit antibody (Cell Signaling Technology; Beverley, Mass.) was used to detect HDACi function. […] Detection of antibodies was performed with a horseradish peroxidase-conjugated species-specific secondary antibody and an enhanced chemiluminescence system. Densitometric analysis using image software (NIH ImageJ software; Bethesda, Md.) was used to quantify the expression of GBA.

[7] = tested on: SDHB protein; experiment: SDHB protein levels in tumor cells from SDHB derived tumors (Examples 9-10); conditions: Example 9, versus untreated cells

| Structure (SMILES) | HDAC inhibition [1] | HDAC inhibition (acetylated histone 3) lasting longer than that of SAHA ([2]; DAOY xenografts, in vivo) | effectiveness by Western blotting for Ac-H3 ([2]; FIG. 4D) | stability / degradation of VHL mutant protein [3] | degradation / loss of mutant SDHB protein [4] | co-translational degradation of missense glucocerebrosidase [5] | HDAC inhibition (acetylated histone 3) [6] | SDHB levels [7] | degradation of SDHB [7] |
| --- | --- | --- | --- | --- | --- | --- | --- | --- | --- |
| O=C(CCCCCNC(=O)c1ccccc1S)Nc1cccnc1 [LB-205] | dose-dependent HDAC inhibition | at least 4 hours | longer effectiveness | stabilized the protein | decreased the loss of mutant SDHB | protect missense glucocerebrosidase from co-translational degradation | inhibited HDACs | significantly higher than in untreated cells | decreased degradation of SDHB |
| O=C(CCCCCCC(=O)Nc1ccccc1)NO [SAHA, suberoylanilide hydroxamic acid, reference compound] |  |  |  | stabilized the protein | slowed the degradation of mutant protein; also recorded: decreased the loss of mutant SDHB |  |  | significantly higher than in untreated cells | decreased degradation of SDHB |
